Laboratory results published in patent US20120101169A1, “METHODS OF PROVIDING ANTICOAGULATION EFFECTS IN SUBJECTS” (Penwest Pharmaceuticals Co., priority 2010, published 2012).
Several values for one entry are separate records, joined by “and”; a condition that tells them apart may be missing. Equal values may be shown once. Read-outs that look alike come from different tables or passages of the source. Marks after values point to notes of the source that are not given here.

Tests used:
[1] = Multiple ascending dose pharmacokinetics of ATQ (Example 5 Part 2); assay type: in vivo, human; conditions: for Cmax / AUC: both sexes, human, plasma, oral; for AUC: read-out: AUC(0-tau, 24)
Method: The study was conducted in 2 parts. Part 1 was conducted in healthy male subjects only while Part 2 was conducted in healthy male and female subjects. The intent of this study part was to optimize the dosage regimen and diet for the multiple-dose safety and tolerance Part 2 of the study. All plasma ATQ concentrations were determined using a GLP validated bioanalytical method. ATQ was administered as an oral solution in oil (0.49 g/mL). The placebo solution consisted of olive oil alone.
Part 2 was conducted as a multiple-dose dose-escalation design. […] Dose administration was subsequently switched to a BID regimen administered for 14 days.
Part 2 was conducted as a multiple-dose dose-escalation design in male and female subjects. None of the subjects who participated in Part 1 of the study were eligible to participate in Part 2. A total of 32 subjects were enrolled in Part 2. Twenty (20) subjects received ATQ or placebo for one week in a single-blind, randomized, placebo-controlled design: Cohort 1 […] low dose (1 g/day as 0.33 g TID) and Cohort 2 […] midrange dose (2 g/day as 0.67 g TID). In each cohort, 8 subjects received ATQ and 2 subjects received placebo under fed conditions. An additional 12 subjects were subsequently enrolled into 2 additional cohorts of 6 subjects each. The 12 subjects were randomized to receive one of the two following ATQ doses: Cohort 3 (N=6) low dose (0.5 g BID) and Cohort 4 (N=6) intermediate dose (0.75 g BID) administered for 14 days with a standard meal. All subjects participating in Cohorts 3 and 4 received ATQ; there was no placebo arm.
For Part 2, serial blood samples for the measurement of the plasma levels of ATQ were collected in Cohorts 1 and 2 as part of a 3 times daily regimen prior to and over the first 6-hour dosing interval following administration of the first dose on Day 1, prior to the morning dose on Days 3, 5, and 6, over the 6-hour and 12-hour dosing intervals following the afternoon and evening dose, respectively, and up to 48 hours after the final (morning) dose on Day 7.
In Cohorts 3 and 4, serial blood samples for the measurement of the plasma levels of ATQ were collected for the twice-daily regimen prior to and over the 12-hour dosing interval following the first dose administration on Day 1, prior to the morning dose on Days 4, 7, 10, 13, and 14, and over the 12-hour dosing interval after the final (morning) dose on Day 14. Multiple-dose PK data over the dose range of 1.0-g/day (BID and TID), 1.5-g/day (BID), and 2.0-g/day (TID) were generated in this study.
Part 2 multiple-dose results are provided for Day 7 (Cohorts 1 and 2) or Day 14 unless otherwise indicated. Parameters designated with the term 24 refer to pharmacokinetic parameters derived for a 24-hour TID or BID dosing period.

protein S = experiment: Extended coagulation biomarker panel: protein S; assay type: in vivo, human; conditions: Part 2, 0.67 g TID, Day 4
Source text: (§1) In Part 1 the extended panel was collected at screening and at check-in (Day −1) and Day 2 of each period unless the study results warranted a different sampling schedule. In Part 2, the same of the exploratory coagulation biomarkers were collected at screening, check-in, Day 4, and Day 8 in Cohorts 1 and 2, or at check-in, Day 7, and Day 14 in Cohorts 3 and 4 with the following exception: in Cohorts 3 and 4, platelet function was collected at check-in only or when medically indicated.

factor X = experiment: Extended coagulation biomarker panel: factor X; assay type: in vivo, human
Source text: as §1

antithrombin (AT) = experiment: Extended coagulation biomarker panel: antithrombin; design: species or system human; conditions: in vivo
Source text: as §1

[2] = tested on: coagulation tests (PT, INR, PTT); experiment: Coagulation tests (PT, INR, PTT) after single ATQ dose (Example 4); conditions: for Highest postdose PT value above ULN: one subject
Source text: (§2) The INR is the ratio of a subject's prothombin time (PTtest) to the prothombin time of a normal (control) sample (PTnormal), raised to the power of the International Sensitivity Index (ISI) value for the analytical system:
“Prothrombin time” or “PT” refers to the time it takes the blood plasma of a subject to clot after the addition of a thromboplastin reagent. “Thromboplastin reagent” refers to a standardized commercial product which is used in blood coagulation assays to measure blood clotting time. Non-limiting examples of thromboplastin reagents include RecombiPlasTin (Beckman Coulter, Brea, Calif.), INNOVN® and THROMBOREL® (Dade Behring, Liederbach, Germany).
(§3) As used herein, the terms “activated partial thromboplastin time” or “aPTT” or “partial thromboplastin time” or “PTT,” refer to the time it takes the blood plasma of a subject to clot after the addition of a phospholipid (i.e., partial thromboplastin) and calcium chloride. Non-limiting examples of phospholipids for use in determining aPTT include silica and kaolin.

[3] = tested on: coagulation (PT, INR, aPTT); experiment: Basic coagulation panel (PT, INR, aPTT) and coagulation safety (Example 5)
Source text: as §2
“Prothrombin time” or “PT” refers to the time it takes the blood plasma of a subject to clot after the addition of a thromboplastin reagent. “Thromboplastin reagent” refers to a standardized commercial product which is used in blood coagulation assays to measure blood clotting time.
as §3
INR grades are used to rank the severity thresholds for the coagulation factors relative to the upper normal of limit values (ULN). The higher the INR grade the higher the severity. […] As used herein, “Grade 1” refers to an INR value of 1.1 to 1.65 in a subject. As used herein, “Grade 2” refers to an INR value of 1.65 to 2.2 in a subject. As used herein, “Grade 3” refers to an INR value greater than 2.2 in a subject.
Thus both the basic coagulation panel assessments including PT, INR, aPTT, and platelet counts were performed at screening, on Day −1, and extensively throughout the treatment period to assess the potential effect of ATQ on coagulation.
This section covers the PD effect of ATQ on the coagulation parameters PT, INR, and aPPT and the relative time course of drug induced changes in these parameters.

[4] = 1-g/day (0.33 g TID), mean, N = 8
[5] = 1-g/day (0.5 g BID), morning dose data, N = 5
[6] = 1.5-g/day (0.75 g BID), morning dose data, N = 6
[7] = 2-g/day (0.67 g TID), mean, N = 7
[8] = Cohort 5 (6-g ATQ), subject with highest PT
[9] = Cohort 6 (2.2-g as 0.735-g TID)
[10] = of the 48 subjects who received ATQ

CC1=C(C)C(=O)C(CC[C@](C)(O)CCC[C@H](C)CCC[C@H](C)CCCC(C)C)=C(C)C1=O [ATQ, alpha-tocopherolquinone]
Time for trough concentrations to reach steady state ([1]; 0.33 g TID): ≤ 3 days | Time for trough concentrations to reach steady state ([1]; 0.5 g BID): ≤ 4 days | Time for trough concentrations to reach steady state ([1]; 0.67 g TID): ≤ 3 days | Time for trough concentrations to reach steady state ([1]; 0.75 g BID): 13 days | Cmin ([1]; 1-g/day (0.33 g TID), Day 7, mean, N = 8): 583 ng/mL | CLpo, 24 ([1]; 1-g/day (0.33 g TID), daily dose divided by mean AUC(0-tau, 24)): 24.2 [c] L/h | Cavg, 24 h [1, 4]: 1730 ng/mL | Fluct24 h [1, 4]: 189% | TimeHgh(0-24) (time above the pharmacologically relevant concentration of 0.5 μg/mL) ([1]; 1-g/day (0.33 g TID), median, N = 8): 23.80 h | TimeHgh(0-24) (time above the pharmacologically relevant concentration of 0.5 μg/mL) ([1]; 1-g/day (0.5 g BID), 2 times the 0-12 hour morning dose value, N = 5): 19.68 [e] h | Cmin ([1]; 1-g/day (0.5 g BID), Day 14, mean, N = 5): 308 ng/mL | CLpo, 24 ([1]; 1-g/day (0.5 g BID), morning dose data, Day 14, N = 5): 57.5 L/h | Cavg, 24 h [1, 5]: 1040 ng/mL | Fluct24 h [1, 5]: 145% | Estimated daily AUC higher with TID than BID ([1]; 1-g/day: 0.33 g TID versus 0.5 g BID): approximately 66% | TimeHgh(0-24) (time above the pharmacologically relevant concentration of 0.5 μg/mL) ([1]; 1.5-g/day (0.75 g BID), 2 times the 0-12 hour morning dose value, N = 6): 21.84 [e] h | Cmin ([1]; 1.5-g/day (0.75 g BID), Day 14, mean, N = 6): 443 ng/mL | CLpo, 24 ([1]; 1.5-g/day (0.75 g BID), morning dose data, Day 14, N = 6): 53.5 L/h | Cavg, 24 h [1, 6]: 1380 ng/mL | Fluct24 h [1, 6]: 147% | Cmin ([1]; 2-g/day (0.67 g TID), Day 7, mean, N = 7): 1220 ng/mL | CLpo, 24 ([1]; 2-g/day (0.67 g TID), daily dose divided by mean AUC(0-tau, 24)): 18.5 [c] L/h | Cavg, 24 h [1, 7]: 4480 ng/mL | Fluct24 h [1, 7]: 177% | TimeHgh(0-24) (time above the pharmacologically relevant concentration of 0.5 μg/mL) ([1]; 2-g/day (0.67 g TID), median, N = 7): 23.87 h | Accumulation of Cmax ([1]; BID administration): did not accumulate | Cmax ([1]; 0.33 g, 1-g/day (0.33 g TID), Day 7, N = 8, read-out: Cmax last dose): 2400 ng/mL | Cmax ([1]; 0.33 g, 1-g/day (0.33 g TID), highest Cmax of the 3 serial TID profiles, Day 6 lunch, N = 8, read-out: Cmax): 3530 ng/mL | Cmax ([1]; 0.5 g, 1-g/day (0.5 g BID), Day 14, N = 5, read-out: Cmax last dose): 1890 ng/mL | Cmax ([1]; 0.5 g, 1-g/day (0.5 g BID), Day 14 morning dose, N = 5, read-out: Cmax): 1890 ng/mL | Cmax ([1]; 0.67 g, 2-g/day (0.67 g TID), Day 7, N = 7, read-out: Cmax last dose): 4280 ng/mL | Cmax ([1]; 0.67 g, 2-g/day (0.67 g TID), highest Cmax of the 3 serial TID profiles, Day 6 dinner, N = 7, read-out: Cmax): 9000 ng/mL | AUC ([1]; 0.75 g, 1.5-g/day (0.75 g BID), 2 times the 0-12 hour morning dose value, N = 6): 33200 ng·h/mL | Cmax ([1]; 0.75 g, 1.5-g/day (0.75 g BID), Day 14, N = 6, read-out: Cmax last dose): 2540 ng/mL | Cmax ([1]; 0.75 g, 1.5-g/day (0.75 g BID), Day 14 morning dose, N = 6, read-out: Cmax): 2540 ng/mL | AUC ([1]; 1 g/day, 1-g/day (0.33 g TID), mean, N = 8): 41400 ng·h/mL | AUC ([1]; 1 g/day, 1-g/day (0.5 g BID), 2 times the 0-12 hour morning dose value, N = 5): 25000 ng·h/mL | AUC ([1]; 2 g/day, 2-g/day (0.67 g TID), mean, N = 7): 108000 ng·h/mL | Maximum concentrations higher with TID than BID ([1]; following the final morning dose, similar doses): approximately 27% | Dose proportionality of exposure following multiple-dose administration ([1]; within TID (2-fold) or BID (1.5-fold) dose range): approximately proportional increases | Decrease from baseline activity of protein S (protein S): 56% | Decrease from baseline activity of factor X (factor X; Part 2, 0.67 g TID, Day 4): 62% | Decrease from baseline activity of factor X (factor X; Part 2, Day 14): 68% | Effect on the activity of AT (antithrombin (AT)): did not appear to affect | INR change ([2]; 2 g administered as a single entity (2 g QD)): NO INR change | Subjects with 24-hour postdose PT value above ULN ([2]; Cohort 3 (1-g ATQ)): 2 of 8 | 24-hour postdose PT value above ULN ([2]; Cohort 3 (1-g ATQ), 2 of 8 subjects): 5.2% | Subjects with postdose PT values above ULN ([2]; Cohort 5 (6-g ATQ)): 5 of 8 | Highest postdose PT value above ULN ([2]; Cohort 5 (6-g ATQ)): 39.1% | Increase in INR above ULN [2, 8]: 23.1% | Increase in PTT above ULN [2, 8]: 5.6% | Subjects with postdose PT values above ULN [2, 9]: 4 of 8 | Highest postdose PT value above ULN [2, 9]: 20.9% | Increase in INR above ULN ([2]; Cohort 6 (2.2-g as 0.735-g TID), subject with highest PT): 7.7% | Subjects with a 24-hour postdose INR value above ULN [2, 10]: 2 subjects | Subjects with a 24-hour postdose PTT value above ULN [2, 10]: 1 subject | Subjects with postdose PT values above the upper limit of normal (ULN) [2, 10]: 11 subjects | Time for INR and PTT values to return to normal range ([2]; postdose, all subjects): ≤ 48 h | Effect on the coagulation tests, especially PT and INR ([2]; single doses, 48 subjects who received ATQ): slight but not clinically significant effect | Reversibility of changes in hemostasis ([2]; upon cessation of the treatment): fully reversible | INR values reached by individual subjects ([3]; 0.67 g TID group, 3 of 8 subjects): 2.3 and 3.0 (2×) | Subjects with that grade of INR increase ([3]; 0.75 g BID, Grade 2): 2 of 6 | Subjects with that grade of INR increase ([3]; 2-g/day (0.67 g TID), Grade 3, active-treated): 3 of 8 | Effect on coagulation (INR, PT, aPTT) ([3]; 3-g over 1 day, 0.33 g TID and 0.67 g TID or 0.75 g BID): clear effect on coagulation | Effect on coagulation during prolonged dosing ([3]; 14 days at 0.5 g and 0.75 g BID): appeared to slowly abate while still on drug beyond 8 days | Subjects with clinical coagulation laboratory values greater than 1.5 times the upper limit of normal (value greater than 1.65) ([3]; Part 1): 5 subjects | Subjects with clinically relevant changes in clinical laboratory values related to treatment-emergent adverse events ([3]; Part 1): Twelve | Active-treated subjects with clinically relevant changes in clinical laboratory values related to treatment-emergent adverse events ([3]; b179, part not stated): Twenty-five | Subjects with study-drug related clinical coagulation laboratory values greater than 1.5 times the upper limit of normal (value greater than 1.65) ([3]; b179, part not stated): 11 subjects | Onset of the effect on coagulation ([3]; following the first (high dose) of ATQ, Part 1): 18 h | Time course of the effect on coagulation ([3]; initial increase through Day 4, second peak by Day 7 to 8): biphasic | Onset of the effect on coagulation ([3]; multiple dose administration): ≤ 48 h | Time at which most subjects approach baseline coagulation values ([3]; post last dose): 48 h | Subjects with that grade of INR increase ([3]; single daily doses of 3-g ATQ, Grade 2): 4 of 12
